Test results reported in patent publication US12162890B2 (Novartis AG, priority 2015, dated 2024).

Target: HEK293 cells with stable expression of the GRIN1 gene and tetracycline-inducible expression of the GRIN2B gene (NMDA receptor, NR2B) (Homo sapiens, UniProt Q13224)
Experiment: Fluo-8 Ca2+ flux assay: reversal of Ro 25-6981-mediated suppression of the Ca2+ response to co-agonist (glutamate/glycine); also: test concentration or dose not given here
Assay type: cell-based
Conditions: reversal of the Ro 25-6981 suppression of the Ca2+ response to co-agonist (glutamate/glycine)

Chain of HEK293 cells with stable expression of the GRIN1 gene and tetracycline-inducible expression of the GRIN2B gene (NMDA receptor, NR2B) (Q13224 27-1484, other chains not shown): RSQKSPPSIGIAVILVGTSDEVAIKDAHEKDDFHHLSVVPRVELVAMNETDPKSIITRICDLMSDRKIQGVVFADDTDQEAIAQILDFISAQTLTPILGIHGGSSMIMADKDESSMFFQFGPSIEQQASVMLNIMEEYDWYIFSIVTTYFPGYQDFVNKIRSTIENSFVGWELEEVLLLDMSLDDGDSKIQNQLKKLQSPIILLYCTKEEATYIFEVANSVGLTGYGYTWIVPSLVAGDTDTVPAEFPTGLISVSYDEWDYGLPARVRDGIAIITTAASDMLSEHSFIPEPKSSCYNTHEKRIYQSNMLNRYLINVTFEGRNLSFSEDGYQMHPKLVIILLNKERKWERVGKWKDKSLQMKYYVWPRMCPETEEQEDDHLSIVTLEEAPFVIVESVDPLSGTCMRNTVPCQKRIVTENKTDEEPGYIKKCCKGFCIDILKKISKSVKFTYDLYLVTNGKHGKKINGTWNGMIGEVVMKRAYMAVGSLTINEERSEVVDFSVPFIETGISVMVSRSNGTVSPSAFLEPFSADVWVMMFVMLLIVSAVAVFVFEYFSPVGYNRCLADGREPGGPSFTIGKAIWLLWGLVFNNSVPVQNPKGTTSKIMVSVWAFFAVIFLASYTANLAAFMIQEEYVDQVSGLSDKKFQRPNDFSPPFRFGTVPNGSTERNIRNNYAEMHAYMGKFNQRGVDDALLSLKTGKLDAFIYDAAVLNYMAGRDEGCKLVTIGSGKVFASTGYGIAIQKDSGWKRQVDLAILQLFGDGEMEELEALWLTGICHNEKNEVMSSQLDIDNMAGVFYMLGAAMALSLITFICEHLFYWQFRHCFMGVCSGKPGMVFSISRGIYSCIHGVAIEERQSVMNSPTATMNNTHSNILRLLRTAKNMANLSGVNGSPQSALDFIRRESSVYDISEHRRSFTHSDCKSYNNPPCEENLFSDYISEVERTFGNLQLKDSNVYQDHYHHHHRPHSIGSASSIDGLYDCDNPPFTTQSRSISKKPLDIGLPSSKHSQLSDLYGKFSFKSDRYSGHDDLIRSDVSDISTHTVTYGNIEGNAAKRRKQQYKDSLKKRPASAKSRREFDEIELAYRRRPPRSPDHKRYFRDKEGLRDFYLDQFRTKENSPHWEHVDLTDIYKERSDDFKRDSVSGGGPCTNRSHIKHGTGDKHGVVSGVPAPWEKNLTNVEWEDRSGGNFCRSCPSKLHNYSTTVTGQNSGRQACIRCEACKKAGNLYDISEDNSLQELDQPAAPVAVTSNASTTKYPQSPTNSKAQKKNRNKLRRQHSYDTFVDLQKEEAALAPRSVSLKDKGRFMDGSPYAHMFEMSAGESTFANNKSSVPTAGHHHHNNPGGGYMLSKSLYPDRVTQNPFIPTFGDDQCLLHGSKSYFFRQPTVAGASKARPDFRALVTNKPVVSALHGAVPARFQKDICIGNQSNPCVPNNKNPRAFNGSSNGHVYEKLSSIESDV

Compared with `O=C(Cn1cnc2csc(-c3ccc(F)c(Cl)c3)c2c1=O)N1CC(F)(F)C1` [Example 360, 5-(3-chloro-4-fluorophenyl)-3-(2-(3,3-difluoroazetidin-1-yl)-2-oxoethyl)thieno[3,4-d]pyrimidin-4(3H)-one], `O=C(Cn1cnc2csc(-c3ccc(Cl)c(F)c3)c2c1=O)N1CC(F)(F)C1` [Example 363, 5-(4-chloro-3-fluorophenyl)-3-(2-(3,3-difluoroazetidin-1-yl)-2-oxoethyl)thieno[3,4-d]pyrimidin-4(3H)-one] is lower in “Response Recovered (%)” value: 39% for the first, 16% for the second.

First: O=C(Cn1cnc2csc(-c3ccc(Cl)c(C(F)(F)F)c3)c2c1=O)N1CC(F)(F)C1 [Example 362, 5-(4-chloro-3-(trifluoromethyl)phenyl)-3-(2-(3,3-difluoroazetidin-1-yl)-2-oxoethyl)thieno[3,4-d]pyrimidin-4(3H)-one]
Second: O=C(Cn1cnc2csc(-c3ccc(Cl)c(C(F)(F)F)c3)c2c1=O)N1CCCC1 [Example 366, 5-(4-chloro-3-(trifluoromethyl)phenyl)-3-(2-oxo-2-(pyrrolidin-1-yl)ethyl)thieno[3,4-d]pyrimidin-4(3H)-one]
The “Response Recovered (%)” value of the first is higher: 39% for the first, 34% for the second.

First: O=C(Cn1cnc2csc(-c3ccc(Cl)c(F)c3)c2c1=O)N1CCC(F)C1 (stereo not drawn) [Example 364, 5-(4-chloro-3-fluorophenyl)-3-(2-(3-fluoropyrrolidin-1-yl)-2-oxoethyl)thieno[3,4-d]pyrimidin-4(3H)-one]
Second: O=C(Cn1cnc2csc(-c3ccc(Cl)c(F)c3)c2c1=O)N1CCC(C(F)(F)F)C1 (stereo not drawn) [Example 365, 5-(4-chloro-3-fluorophenyl)-3-(2-oxo-2-(3-(trifluoromethyl)pyrrolidin-1-yl)ethyl)thieno[3,4-d]pyrimidin-4(3H)-one]
The “Response Recovered (%)” value of the first is higher: 35% for the first, 4% for the second.

Going from `O=C(Cn1cnc2csc(-c3ccc(Cl)c(F)c3)c2c1=O)N1CCCC1` [Example 367, 5-(4-chloro-3-fluorophenyl)-3-(2-oxo-2-(pyrrolidin-1-yl)ethyl)thieno[3,4-d]pyrimidin-4(3H)-one] to `O=C(Cn1cnc2c(Br)sc(-c3ccc(Cl)c(F)c3)c2c1=O)N1CCCC1` [Example 368, 7-bromo-5-(4-chloro-3-fluorophenyl)-3-(2-oxo-2-(pyrrolidin-1-yl)ethyl)thieno[3,4-d]pyrimidin-4(3H)-one], the “Response Recovered (%)” value rises from 15% to 41%.

Compared with `Cc1sc(-c2ccc(Cl)c(F)c2)c2c(=O)n(CC(=O)N3CCCC3)cnc12` [Example 369, 5-(4-chloro-3-fluorophenyl)-7-methyl-3-(2-oxo-2-(pyrrolidin-1-yl)ethyl)thieno[3,4-d]pyrimidin-4(3H)-one], `O=C(Cn1cnc2snc(-c3ccc(Cl)cc3)c2c1=O)N1CCCC1` [Example 380, 3-(4-chlorophenyl)-5-(2-oxo-2-(pyrrolidin-1-yl)ethyl)isothiazolo[5,4-d]pyrimidin-4(5H)-one] is lower in “Response Recovered (%)” value: 33% for the first, 6% for the second.

First: O=C(Cn1cnc2ccn(-c3ccc(Cl)cc3)c2c1=O)N1CCC1 [Example 370, 3-(2-(azetidin-1-yl)-2-oxoethyl)-5-(4-chlorophenyl)-3H-pyrrolo[3,2-d]pyrimidin-4(5H)-one]
Second: O=C(Cn1cnc2ccn(-c3ccc(Cl)cc3)c2c1=O)N1CCCC1 [Example 376, 5-(4-chlorophenyl)-3-(2-oxo-2-(pyrrolidin-1-yl)ethyl)-3H-pyrrolo[3,2-d]pyrimidin-4(5H)-one]
The “Response Recovered (%)” value of the first is higher: 4% for the first, 3% for the second.

`O=C(Cn1cnc2ccn(-c3ccc(Cl)cc3)c2c1=O)N1CCOCC1` [Example 371, 5-(4-chlorophenyl)-3-(2-morpholino-2-oxoethyl)-3H-pyrrolo[3,2-d]pyrimidin-4(5H)-one] and `O=C(Cn1cnc2ccn(-c3ccc(Cl)cc3)c2c1=O)N1CCCCC1` [Example 377, 5-(4-chlorophenyl)-3-(2-oxo-2-(piperidin-1-yl)ethyl)-3H-pyrrolo[3,2-d]pyrimidin-4(5H)-one] are the same in “Response Recovered (%)” value: 1% for the first, 1% for the second.

Compared with `COC1CN(C(=O)Cn2cnc3ccn(-c4ccc(Cl)cc4)c3c2=O)C1` [Example 372, 5-(4-chlorophenyl)-3-(2-(3-methoxyazetidin-1-yl)-2-oxoethyl)-3H-pyrrolo[3,2-d]pyrimidin-4(5H)-one], `O=C(Cn1cnc2ccn(-c3ccc(Cl)cc3)c2c1=O)N1CC(F)(F)C1` [Example 374, 5-(4-chlorophenyl)-3-(2-(3,3-difluoroazetidin-1-yl)-2-oxoethyl)-3H-pyrrolo[3,2-d]pyrimidin-4(5H)-one] is higher in “Response Recovered (%)” value: 1% for the first, 4% for the second.

Going from `O=C(Cn1cnc2ccn(-c3ccc(Cl)cc3)c2c1=O)N1CCC(F)(F)CC1` [Example 373, 5-(4-chlorophenyl)-3-(2-(4,4-difluoropiperidin-1-yl)-2-oxoethyl)-3H-pyrrolo[3,2-d]pyrimidin-4(5H)-one] to `O=C(Cn1cnc2ccn(-c3ccc(Cl)cc3)c2c1=O)N1CCCC1C(F)(F)F` (stereo not drawn) [Example 379, 5-(4-chlorophenyl)-3-(2-oxo-2-(2-(trifluoromethyl)pyrrolidin-1-yl)ethyl)-3H-pyrrolo[3,2-d]pyrimidin-4(5H)-one], the “Response Recovered (%)” value rises from 3% to 5%.

Going from `O=C(Cn1cnc2ccn(-c3ccc(Cl)cc3)c2c1=O)NC1CC1` [Example 375, 2-(5-(4-chlorophenyl)-4-oxo-4,5-dihydro-3H-pyrrolo[3,2-d]pyrimidin-3-yl)-N-cyclopropylacetamide] to `O=C(Cn1cnc2onc(-c3ccc(Cl)cc3)c2c1=O)N1CCC(F)C1` (stereo not drawn) [Example 386, 3-(4-chlorophenyl)-5-(2-(3-fluoropyrrolidin-1-yl)-2-oxoethyl)isoxazolo[5,4-d]pyrimidin-4(5H)-one], the “Response Recovered (%)” value rises from 0% to 4%.

Going from `O=C(Cn1cnc2snc(-c3ccc(Cl)cc3)c2c1=O)N1CC(F)(F)C1` [Example 381, 3-(4-chlorophenyl)-5-(2-(3,3-difluoroazetidin-1-yl)-2-oxoethyl)isothiazolo[5,4-d]pyrimidin-4(5H)-one] to `O=C(Cn1cnc2onc(-c3ccc(Cl)cc3)c2c1=O)N1CC(F)(F)C1` [Example 385, 3-(4-chlorophenyl)-5-(2-(3,3-difluoroazetidin-1-yl)-2-oxoethyl)isoxazolo[5,4-d]pyrimidin-4(5H)-one], the “Response Recovered (%)” value rises from 2% to 4%.

Compared with `O=C(Cn1cnc2snc(-c3ccc(Cl)cc3)c2c1=O)N1CCCC1C(F)(F)F` (stereo not drawn) [Example 382, 3-(4-chlorophenyl)-5-(2-oxo-2-(2-(trifluoromethyl)pyrrolidin-1-yl)ethyl)isothiazolo[5,4-d]pyrimidin-4(5H)-one], `O=C(Cn1cnc2onc(-c3ccc(Cl)cc3)c2c1=O)N1CCCC1C(F)(F)F` (stereo not drawn) [Example 384, 3-(4-chlorophenyl)-5-{2-oxo-2-[2-(trifluoromethyl)pyrrolidin-1-yl]ethyl}-4H,5H-[1,2]oxazolo[5,4-d]pyrimidin-4-one] is lower in “Response Recovered (%)” value: 9% for the first, 2% for the second.

Compared with `O=C(Cn1cnc2onc(-c3ccc(Cl)cc3)c2c1=O)N1CCCC1` [Example 383, 3-(4-chlorophenyl)-5-(2-oxo-2-(pyrrolidin-1-yl)ethyl)isoxazolo[5,4-d]pyrimidin-4(5H)-one], `O=C(Cn1cnc2occ(-c3ccc(Cl)cc3)c2c1=O)N1CCCC1` [Example 388, 5-(4-chlorophenyl)-3-(2-oxo-2-(pyrrolidin-1-yl)ethyl)furo[2,3-d]pyrimidin-4(3H)-one] is higher in “Response Recovered (%)” value: 1% for the first, 8% for the second.

Compared with `O=C(Cn1cnc2occ(-c3ccc(Cl)cc3)c2c1=O)N1CCC(C(F)(F)F)C1` (stereo not drawn) [Example 387, 5-(4-chlorophenyl)-3-(2-oxo-2-(3-(trifluoromethyl)pyrrolidin-1-yl)ethyl)furo[2,3-d]pyrimidin-4(3H)-one], `O=C(Cn1cnc2occ(-c3ccc(Cl)cc3)c2c1=O)N1CC(F)(F)C1` [Example 389, 5-(4-chlorophenyl)-3-(2-(3,3-difluoroazetidin-1-yl)-2-oxoethyl)furo[2,3-d]pyrimidin-4(3H)-one] is higher in “Response Recovered (%)” value: 7% for the first, 8% for the second.

First: O=C(Cn1ccn2ccc(-c3ccc(F)c(C(F)(F)F)c3)c2c1=O)N1CCC(F)C1 (stereo not drawn) [Example 390, 8-(4-fluoro-3-(trifluoromethyl)phenyl)-2-(2-(3-fluoropyrrolidin-1-yl)-2-oxoethyl)pyrrolo[1,2-a]pyrazin-1(2H)-one]
Second: O=C(Cn1ccn2ccc(-c3ccc(F)c(Cl)c3)c2c1=O)N1CCC(F)C1 (stereo not drawn) [Example 393, 8-(3-chloro-4-fluorophenyl)-2-(2-(3-fluoropyrrolidin-1-yl)-2-oxoethyl)pyrrolo[1,2-a]pyrazin-1(2H)-one]
The “Response Recovered (%)” value of the first is higher: 51% for the first, 49% for the second.

Going from `O=C(Cn1ccn2ccc(-c3ccc(F)c(C(F)(F)F)c3)c2c1=O)N1CCCC1` [Example 391, 8-(4-fluoro-3-(trifluoromethyl)phenyl)-2-(2-oxo-2-(pyrrolidin-1-yl)ethyl)pyrrolo[1,2-a]pyrazin-1(2H)-one] to `O=C(Cn1ccn2ccc(-c3ccc(F)c(Cl)c3)c2c1=O)N1CCCC1` [Example 392, 8-(3-chloro-4-fluorophenyl)-2-(2-oxo-2-(pyrrolidin-1-yl)ethyl)pyrrolo[1,2-a]pyrazin-1(2H)-one], the “Response Recovered (%)” value rises from 77% to 118%.

Going from `O=C(Cn1ccn2ccc(-c3ccc(Cl)c(Cl)c3)c2c1=O)N1CCCC1` [Example 394, 8-(3,4-dichlorophenyl)-2-(2-oxo-2-(pyrrolidin-1-yl)ethyl)pyrrolo[1,2-a]pyrazin-1(2H)-one] to `O=C(Cn1ccn2ccc(-c3ccc(Cl)c(Cl)c3)c2c1=O)N1CCC(F)C1` (stereo not drawn) [Example 395, 8-(3,4-dichlorophenyl)-2-(2-(3-fluoropyrrolidin-1-yl)-2-oxoethyl)pyrrolo[1,2-a]pyrazin-1(2H)-one], the “Response Recovered (%)” value falls from 62% to 58%.

`CC1(F)CN(C(=O)Cn2ccn3ccc(-c4ccc(Cl)c(Cl)c4)c3c2=O)C1` [Example 396, 8-(3,4-dichlorophenyl)-2-(2-(3-fluoro-3-methylazetidin-1-yl)-2-oxoethyl)pyrrolo[1,2-a]pyrazin-1(2H)-one] and `CC1(F)CN(C(=O)Cn2ccn3ccc(-c4ccc(F)c(Cl)c4)c3c2=O)C1` [Example 397, 8-(3-chloro-4-fluorophenyl)-2-(2-(3-fluoro-3-methylazetidin-1-yl)-2-oxoethyl)pyrrolo[1,2-a]pyrazin-1(2H)-one] are the same in “Response Recovered (%)” value: 140% for the first, 140% for the second.
